Results as given in patent publication US11045435B2, “Methods for treating ocular diseases” (NATUREWISE BIOTECH & MEDICALS CORPORATION, priority 2016, dated 2021).

Assays:
[1] = test system: experimentally-induced ocular inflammation; experiment: Vascular permeability in experimentally-induced ocular inflammation; type: in vivo; details: earlier experiments of the applicant's laboratory
IL-1-induced uveitis = IL-1-induced uveitis in rat eyes; type: in vivo; details: earlier experiments of the applicant's laboratory

## COc1ccc2ccc(=O)oc2c1CC=C(C)C [Osthole]
[1]
  vascular permeability: showed efficacy to reduce vascular permeability
IL-1-induced uveitis
  IL-1-induced uveitis: inhibit IL-1-induced uveitis
